Test results reported in PubChem BioAssay AID220 (DTP/NCI, 2004).
Where “and” joins values, the source holds several entries; their conditions need not be identical. Identical values can stand only once. Results filed as inconclusive are left out.

System: CD8F1 mice, subcutaneous mammary adenocarcinoma, T/C%
Assay: NCI In Vivo Anticancer Drug Screen. Data for tumor model Mammary Adenocarcinoma CD8F1 (subcutaneous) in CD8F1
Details: higher = larger tumour
Procedure, shortened: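 Mice carrying transplanted tumors received test compound, and survival or tumor size was recorded. Each value is the treated-group measurement divided by the corresponding measurement in vehicle-dosed controls.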

[1] = endpoint: median tumor weight change, dose: 125.0 mg/kg/injection, schedule: Q01DX001 (ip), vehicle: saline
[2] = endpoint: median tumor weight change, dose: 62.5 mg/kg/injection, schedule: Q01DX001 (ip), vehicle: saline with Tween-80
[3] = endpoint: median tumor weight change, dose: 125.0 mg/kg/injection, schedule: Q01DX001 (ip), vehicle: saline with Tween-80
[4] = endpoint: median tumor weight change, dose: 250.0 mg/kg/injection, schedule: Q01DX001 (ip), vehicle: saline with Tween-80
[5] = endpoint: median tumor weight change, dose: 500.0 mg/kg/injection, schedule: Q01DX001 (ip), vehicle: saline with Tween-80
[6] = endpoint: median tumor weight change, dose: 1000.0 mg/kg/injection, schedule: Q01DX001 (ip), vehicle: saline with Tween-80
[7] = endpoint: median tumor weight (est.), dose: 12.5 mg/kg/injection, schedule: Q07DX005 (ip), vehicle: saline with Tween-80
[8] = endpoint: median tumor weight (est.), dose: 25.0 mg/kg/injection, schedule: Q07DX005 (ip), vehicle: saline with Tween-80
[9] = endpoint: median tumor weight (est.), dose: 50.0 mg/kg/injection, schedule: Q07DX005 (ip), vehicle: saline with Tween-80
[10] = endpoint: median tumor weight (est.), dose: 100.0 mg/kg/injection, schedule: Q07DX005 (ip), vehicle: saline with Tween-80
[11] = endpoint: median tumor weight (est.), dose: 200.0 mg/kg/injection, schedule: Q07DX005 (ip), vehicle: saline with Tween-80
[12] = endpoint: median tumor weight (est.), dose: 400.0 mg/kg/injection, schedule: Q07DX005 (ip), vehicle: saline with Tween-80
[13] = endpoint: median tumor weight (est.), dose: 6.25 mg/kg/injection, schedule: Q07DX005 (ip), vehicle: saline with Tween-80

SMILES: C=CC(=O)NCNC(=O)C=C
- T/C (endpoint: median tumor weight (est.), dose: 12.5 mg/kg/injection, schedule: Q07DX005 (ip), vehicle: suspension in saline): 104 % of control
- T/C (endpoint: median tumor weight (est.), dose: 25.0 mg/kg/injection, schedule: Q07DX005 (ip), vehicle: suspension in saline): 85 % of control
- T/C (endpoint: median tumor weight (est.), dose: 50.0 mg/kg/injection, schedule: Q07DX005 (ip), vehicle: suspension in saline): 80 % of control
- T/C (endpoint: median tumor weight (est.), dose: 100.0 mg/kg/injection, schedule: Q07DX005 (ip), vehicle: suspension in saline): 43 % of control
- T/C (endpoint: median tumor weight (est.), dose: 200.0 mg/kg/injection, schedule: Q07DX005 (ip), vehicle: suspension in saline): 32 % of control
- T/C (endpoint: median tumor weight (est.), dose: 400.0 mg/kg/injection, schedule: Q07DX005 (ip), vehicle: suspension in saline): 9 % of control
- T/C (endpoint: median tumor weight change, dose: 62.5 mg/kg/injection, schedule: Q01DX001 (ip), vehicle: saline): 78 % of control
- T/C (endpoint: median tumor weight change, dose: 62.5 mg/kg/injection, schedule: Q01DX001 (ip), vehicle: suspension in saline): 90 % of control
- T/C (endpoint: median tumor weight change, dose: 72.0 mg/kg/injection, schedule: Q01DX001 (ip), vehicle: saline): 105 % of control
- T/C (endpoint: median tumor weight change, dose: 109.0 mg/kg/injection, schedule: Q01DX001 (ip), vehicle: saline): 150 % of control
- T/C [1]: 46 % of control
- T/C (endpoint: median tumor weight change, dose: 125.0 mg/kg/injection, schedule: Q01DX001 (ip), vehicle: suspension in saline): 42 % of control
- T/C (endpoint: median tumor weight change, dose: 165.0 mg/kg/injection, schedule: Q01DX001 (ip), vehicle: saline): 71 % of control
- T/C (endpoint: median tumor weight change, dose: 250.0 mg/kg/injection, schedule: Q01DX001 (ip), vehicle: saline): 50 % of control and 74 % of control
- T/C (endpoint: median tumor weight change, dose: 250.0 mg/kg/injection, schedule: Q01DX001 (ip), vehicle: suspension in saline): -28 % of control
- T/C (endpoint: median tumor weight change, dose: 379.0 mg/kg/injection, schedule: Q01DX001 (ip), vehicle: saline): 62 % of control

SMILES: CCC1=C2C(=O)c3ccccc3C2=C(C)S(=O)(=O)O1
- T/C (endpoint: median tumor weight change, dose: 31.25 mg/kg/injection, schedule: Q01DX001 (ip), vehicle: saline with Tween-80): 120 % of control
- T/C [2]: 185 % of control
- T/C [3]: 116 % of control

SMILES: O=C1SC(c2ccccc2)=S=C1c1ccccc1
- T/C [3]: 67 % of control
- T/C [4]: 100 % of control
- T/C [5]: 60 % of control
- T/C [6]: 56 % of control

SMILES: COC1=NCN=C2SC=C(N)N=C12
- T/C (endpoint: median tumor weight (est.), dose: 6.25 mg/kg/injection, schedule: Q07DX005 (ip), vehicle: saline): 208 % of control
- T/C (endpoint: median tumor weight (est.), dose: 12.5 mg/kg/injection, schedule: Q07DX005 (ip), vehicle: saline): 76 % of control
- T/C (endpoint: median tumor weight (est.), dose: 25.0 mg/kg/injection, schedule: Q07DX005 (ip), vehicle: saline): 107 % of control
- T/C (endpoint: median tumor weight (est.), dose: 50.0 mg/kg/injection, schedule: Q07DX005 (ip), vehicle: saline): 156 % of control

SMILES: CC(=O)Nc1ccc(S(=O)(=O)CO)cc1
- T/C [7]: 222 % of control and 77 % of control
- T/C [8]: 174 % of control and 409 % of control
- T/C [9]: 189 % of control and 268 % of control
- T/C [10]: 211 % of control and 271 % of control
- T/C [11]: 186 % of control and 403 % of control
- T/C [12]: 165 % of control and 281 % of control

SMILES: N#CC(=C1C=CC(=NO)C=C1)c1ccc(Cl)cc1
- T/C (endpoint: mean tumor weight, dose: 100.0 mg/kg/injection, schedule: Q07DX006 (ip), vehicle: saline with Tween-80): 36 % of control and 52 % of control
- T/C (endpoint: mean tumor weight, dose: 200.0 mg/kg/injection, schedule: Q07DX006 (ip), vehicle: saline with Tween-80): 19 % of control and 26 % of control
- T/C (endpoint: mean tumor weight, dose: 400.0 mg/kg/injection, schedule: Q07DX006 (ip), vehicle: saline with Tween-80): 7 % of control and 10 % of control
- T/C [8]: 98 % of control
- T/C [9]: 63 % of control
- T/C [10]: 58 % of control
- T/C [11]: 57 % of control
- T/C [12]: 36 % of control
- T/C [2]: 92 % of control
- T/C [3]: 88 % of control
- T/C [4]: 70 % of control
- T/C [5]: 28 % of control
- T/C [6]: 26 % of control

SMILES: CC(=O)NC(Cc1ccc(F)cc1)C(=O)O (configuration not stated)
- T/C [9]: 117 % of control
- T/C [10]: 80 % of control
- T/C [11]: 68 % of control
- T/C (endpoint: median tumor weight (est.), dose: 800.0 mg/kg/injection, schedule: Q07DX005 (ip), vehicle: saline with Tween-80): 153 % of control

SMILES: O=C(CCl)NC(Cc1ccc(N(CCCl)CCCl)cc1)C(=O)O (configuration not stated)
- T/C (endpoint: median tumor weight (est.), dose: 2.0 mg/kg/injection, schedule: Q01DX001 (ip), vehicle: Klucel (hydroxypropylcellulose) (HPC)): 93 % of control
- T/C (endpoint: median tumor weight (est.), dose: 4.0 mg/kg/injection, schedule: Q01DX001 (ip), vehicle: Klucel (hydroxypropylcellulose) (HPC)): 54 % of control
- T/C (endpoint: median tumor weight (est.), dose: 8.0 mg/kg/injection, schedule: Q01DX001 (ip), vehicle: Klucel (hydroxypropylcellulose) (HPC)): 75 % of control and 82 % of control
- T/C (endpoint: median tumor weight (est.), dose: 16.0 mg/kg/injection, schedule: Q01DX001 (ip), vehicle: Klucel (hydroxypropylcellulose) (HPC)): 48 % of control and 60 % of control
- T/C (endpoint: median tumor weight (est.), dose: 32.0 mg/kg/injection, schedule: Q01DX001 (ip), vehicle: Klucel (hydroxypropylcellulose) (HPC)): 60 % of control and 62 % of control
- T/C (endpoint: median tumor weight (est.), dose: 64.0 mg/kg/injection, schedule: Q01DX001 (ip), vehicle: Klucel (hydroxypropylcellulose) (HPC)): 19 % of control and 43 % of control

SMILES: O=C(C#Cc1ccccc1)c1ccccc1
- T/C (endpoint: median tumor weight (est.), dose: 0.39 mg/kg/injection, schedule: Q07DX005 (ip), vehicle: saline with Tween-80): 64 % of control
- T/C (endpoint: median tumor weight (est.), dose: 0.78 mg/kg/injection, schedule: Q07DX005 (ip), vehicle: saline with Tween-80): 68 % of control
- T/C (endpoint: median tumor weight (est.), dose: 1.56 mg/kg/injection, schedule: Q07DX005 (ip), vehicle: saline with Tween-80): 68 % of control
- T/C (endpoint: median tumor weight (est.), dose: 3.12 mg/kg/injection, schedule: Q07DX005 (ip), vehicle: Klucel (hydroxypropylcellulose) (HPC)): 47 % of control
- T/C (endpoint: median tumor weight (est.), dose: 3.12 mg/kg/injection, schedule: Q07DX005 (ip), vehicle: saline with Tween-80): 53 % of control
- T/C [13]: 67 % of control
- T/C [7]: 46 % of control

SMILES: C=CC(C)(C)n1cc(C2=C(O)C(=O)C(c3cn(C(C)(C)C=C)c4ccccc34)=C(O)C2=O)c2ccccc21
- T/C (endpoint: median tumor weight (est.), dose: 2.5 mg/kg/injection, schedule: Q07DX005 (ip), vehicle: Klucel (hydroxypropylcellulose) (HPC)): 122 % of control
- T/C (endpoint: median tumor weight (est.), dose: 5.0 mg/kg/injection, schedule: Q07DX005 (ip), vehicle: Klucel (hydroxypropylcellulose) (HPC)): 74 % of control
- T/C (endpoint: median tumor weight (est.), dose: 10.0 mg/kg/injection, schedule: Q07DX005 (ip), vehicle: Klucel (hydroxypropylcellulose) (HPC)): 91 % of control
- T/C (endpoint: median tumor weight (est.), dose: 20.0 mg/kg/injection, schedule: Q07DX005 (ip), vehicle: Klucel (hydroxypropylcellulose) (HPC)): 157 % of control
- T/C (endpoint: median tumor weight (est.), dose: 40.0 mg/kg/injection, schedule: Q07DX005 (ip), vehicle: Klucel (hydroxypropylcellulose) (HPC)): 168 % of control
- T/C (endpoint: median tumor weight change, dose: 1.25 mg/kg/injection, schedule: Q01DX001 (ip), vehicle: DMSO): 64 % of control
- T/C (endpoint: median tumor weight change, dose: 2.5 mg/kg/injection, schedule: Q01DX001 (ip), vehicle: DMSO): 77 % of control
- T/C (endpoint: median tumor weight change, dose: 5.0 mg/kg/injection, schedule: Q01DX001 (ip), vehicle: DMSO): 86 % of control
- T/C (endpoint: median tumor weight change, dose: 10.0 mg/kg/injection, schedule: Q01DX001 (ip), vehicle: DMSO): 110 % of control

SMILES: CC(C)CC(=O)NC(C(=O)NC(C(=O)NC(CC(C)C)C(O)CC(=O)NC(C)C(=O)NC(CC(C)C)C(O)CC(=O)O)C(C)C)C(C)C (configuration not stated)
- T/C (endpoint: median tumor weight change, dose: 62.5 mg/kg/injection, schedule: Q01DX001 (ip), vehicle: Klucel (hydroxypropylcellulose) (HPC)): 97 % of control

SMILES: O=C(C1CO1)C(Cl)(Cl)Cl (configuration not stated)
- T/C (endpoint: median tumor weight change, dose: 4.0 mg/kg/injection, schedule: Q01DX001 (ip), vehicle: saline): 81 % of control
- T/C (endpoint: median tumor weight change, dose: 8.0 mg/kg/injection, schedule: Q01DX001 (ip), vehicle: saline): 72 % of control
- T/C (endpoint: median tumor weight change, dose: 16.0 mg/kg/injection, schedule: Q01DX001 (ip), vehicle: saline): 68 % of control
- T/C [1]: 34 % of control

SMILES: O=Cc1ccc([N+](=O)[O-])s1
- T/C [13]: 225 % of control
- T/C [7]: 71 % of control
- T/C [8]: 295 % of control
- T/C [9]: 156 % of control

SMILES: CC(C)CCC[C@@H](C)[C@H]1CC[C@H]2[C@@H]3CC=C4C[C@@H](OC(=O)Cc5ccc(N(CCCl)CCCl)cc5)CC[C@]4(C)[C@H]3CC[C@]12C
- T/C (endpoint: median tumor weight (est.), dose: 25.0 mg/kg/injection, schedule: Q07DX005 (ip), vehicle: Klucel (hydroxypropylcellulose) (HPC)): 91 % of control
- T/C (endpoint: median tumor weight (est.), dose: 50.0 mg/kg/injection, schedule: Q07DX005 (ip), vehicle: Klucel (hydroxypropylcellulose) (HPC)): 73 % of control
- T/C (endpoint: median tumor weight (est.), dose: 100.0 mg/kg/injection, schedule: Q07DX005 (ip), vehicle: Klucel (hydroxypropylcellulose) (HPC)): 123 % of control
- T/C (endpoint: median tumor weight (est.), dose: 200.0 mg/kg/injection, schedule: Q07DX005 (ip), vehicle: Klucel (hydroxypropylcellulose) (HPC)): 57 % of control
- T/C (endpoint: median tumor weight (est.), dose: 400.0 mg/kg/injection, schedule: Q07DX005 (ip), vehicle: Klucel (hydroxypropylcellulose) (HPC)): 102 % of control
- T/C (endpoint: median tumor weight (est.), dose: 800.0 mg/kg/injection, schedule: Q07DX005 (ip), vehicle: Klucel (hydroxypropylcellulose) (HPC)): 36 % of control
